Measurements as given in patent publication US6608004B2, “Substituted 2-aryl-1,2,4-triazine-3,5-di(thi)ones” (priority 1999, dated 2003).
Like-named read-outs stand apart in the source and are kept apart here.

Key:
[1] = tested on: crop plants, such as, for example, barley, wheat, rapeseed, soya and sugar beet; experiment: Pre-Emergence Test (Example A), tolerance by crop plants; format: in vivo
From the text: (§1) Solvent: 5 parts by weight of acetone
(§2) Emulsifier: 1 part by weight of alkylaryl polyglycol ether
(§3) Seeds of the test plants are sown in normal soil.

[2] = tested on: weeds; experiment: Post-Emergence Test (Example B), activity against weeds; format: in vivo; settings: test plants of a height of 5-15 cm sprayed, rated after three weeks
From the text: as §1, §2
(§4) After three weeks, the degree of damage to the plants is rated in % damage in comparison to the development of the untreated control.

[3] = tested on: weeds; experiment: Pre-Emergence Test (Example A), activity against weeds; format: in vivo; settings: soil sprayed about 24 hours after sowing, rated after three weeks
From the text: as §1, §2, §3
0%=no effect (like untreated control)

[4] = tested on: crop plants, such as, for example, barley and wheat; experiment: Post-Emergence Test (Example B), tolerance by crop plants
From the text: as §1, §2, §4

[5] = logP determination by HPLC, reversed-phase column (C 18), EEC Directive 79/831 Annex V.A8
From the text: (a) Mobile phases for the determination in the acidic range: 0.1% aqueous phosphoric acid, acetonitrile; linear gradient from 10% acetonitrile to 90% acetonitrile—the corresponding measurement results are labelled in Table 1 with ^a).
(b) Mobile phases for the determination in the neutral range: 0.01 molar aqueous phosphate buffer solution, acetonitrile; linear gradient from 10% acetonitrile to 90% acetonitrile—the corresponding measurement results are labelled in Table 1 with ^b).

[6] = a) acidic range: 0.1% aqueous phosphoric acid, acetonitrile gradient, HPLC C 18, 43° C.
[7] = pre-emergence, barley, wheat, rapeseed, soya and sugar beet, rated after three weeks
[8] = post-emergence, barley and wheat, rated after three weeks

SMILES | tolerance by crop plants ([1]; in vivo) | activity against weeds (degree of damage) [2] | activity against weeds (degree of damage) [3] | tolerance by crop plants ([4]; in vivo) | logP a) [5] | logP a) [5, 6] | tolerance by crop plants [1, 7] | tolerance by crop plants [4, 8]
CCCCC(CC)C(=O)N(c1cc(-n2ncc(=O)n(C)c2=O)c(F)cc1C#N)S(=O)(=O)CC (racemic) [Example 7] | essentially being tolerated well | very strong activity | very strong activity | essentially being tolerated well | m.p.: 140 °C logP = 3.53^a) | – | – | –
CCC(Oc1ccccc1)C(=O)N(c1cc(-n2ncc(=O)n(C)c2=O)c(F)cc1C#N)S(=O)(=O)CC (racemic) [Example 33] | essentially being tolerated well | very strong activity | very strong activity | essentially being tolerated well | m.p.: 128 °C logP = 3.12^a) | – | – | –
CCS(=O)(=O)N(C(=O)C(C)c1c(Cl)cccc1Cl)c1cc(-n2ncc(=O)n(C)c2=O)c(F)cc1C#N (racemic) [Example 34] | – | – | – | – | – | m.p.: 159 °C logP = 3.07^a) | – | –
CCS(=O)(=O)N(C(=O)C1CCc2ccccc2O1)c1cc(-n2ncc(=O)n(C)c2=O)c(F)cc1C#N (racemic) [Example 38] | – | – | – | – | m.p.: 115 °C logP = 2.93^a) | – | – | –
CCS(=O)(=O)N(C(=O)C(C)Oc1ccccc1)c1cc(-n2ncc(=O)n(C)c2=O)c(F)cc1C#N (racemic) [Example 39] | essentially being tolerated well | very strong activity | very strong activity | essentially being tolerated well | m.p.: 132 °C logP = 2.85^a) | – | – | –
CCS(=O)(=O)N(C(=O)C(C)Cl)c1cc(-n2ncc(=O)n(C)c2=O)c(F)cc1C#N (racemic) [Example 61] | essentially being tolerated well | very strong activity | very strong activity | essentially being tolerated well | logP = 2.38^a) | – | – | –
CCS(=O)(=O)N(C(=O)CCl)c1cc(-n2ncc(=O)n(C)c2=O)c(F)cc1C#N [Example 4] | essentially being tolerated well | very strong activity | very strong activity | essentially being tolerated well | logP = 2.09^a) | – | – | –
CCS(=O)(=O)N(C(=O)c1ccccc1F)c1cc(-n2ncc(=O)n(C)c2=O)c(F)cc1C#N [Example 5] | essentially being tolerated well | very strong activity | very strong activity | essentially being tolerated well | m.p.: 176 °C logP = 2.52^a) | – | – | –
CCS(=O)(=O)N(C(=O)COc1ccc(Cl)cc1)c1cc(-n2ncc(=O)n(C)c2=O)c(F)cc1C#N [Example 6] | essentially being tolerated well | very strong activity | very strong activity | essentially being tolerated well | m.p.: 65 °C logP = 3.07^a) | – | – | –
CCS(=O)(=O)N(C(=O)C(C)(C)C)c1cc(-n2ncc(=O)n(C)c2=O)c(F)cc1C#N [Example 10] | essentially being tolerated well | very strong activity | very strong activity | essentially being tolerated well | logP = 2.71^a) | – | – | –
CCS(=O)(=O)N(C(=O)c1ccc(OC)cc1)c1cc(-n2ncc(=O)n(C)c2=O)c(F)cc1C#N [Example 11] | – | – | very strong activity | – | m.p.: 94 °C logP = 2.77^a) | – | essentially being tolerated well | –
CCS(=O)(=O)N(C(=O)C(C)C)c1cc(-n2ncc(=O)n(C)c2=O)c(F)cc1C#N [Example 13] | essentially being tolerated well | very strong activity | very strong activity | essentially being tolerated well | logP = 2.50^a) | – | – | –
CCS(=O)(=O)N(C(=O)c1ccco1)c1cc(-n2ncc(=O)n(C)c2=O)c(F)cc1C#N [Example 14] | essentially being tolerated well | very strong activity | very strong activity | essentially being tolerated well | m.p.: 90 °C logP = 2.31^a) | – | – | –
CCS(=O)(=O)N(C(=O)C1CCCCC1)c1cc(-n2ncc(=O)n(C)c2=O)c(F)cc1C#N [Example 16] | – | very strong activity | very strong activity | – | – | m.p.: 182 °C logP = 2.46^a) | essentially being tolerated well | essentially being tolerated well
C/C=C/C(=O)N(c1cc(-n2ncc(=O)n(C)c2=O)c(F)cc1C#N)S(=O)(=O)CC [Example 18] | – | very strong activity | very strong activity | – | – | m.p.: 153 °C logP = 2.16^a) | essentially being tolerated well | essentially being tolerated well
CCS(=O)(=O)N(C(=O)CC(C)(C)C)c1cc(-n2ncc(=O)n(C)c2=O)c(F)cc1C#N [Example 19] | essentially being tolerated well | very strong activity | very strong activity | essentially being tolerated well | logP = 2.94^a) | – | – | –
CCS(=O)(=O)N(C(=O)CC(C)C)c1cc(-n2ncc(=O)n(C)c2=O)c(F)cc1C#N [Example 20] | essentially being tolerated well | very strong activity | very strong activity | essentially being tolerated well | logP = 2.65^a) | – | – | –

SMILES | tolerance by crop plants ([1]; in vivo) | activity against weeds (degree of damage) [2] | activity against weeds (degree of damage) [3] | tolerance by crop plants ([4]; in vivo) | logP a) [5] | logP a) [5, 6] | tolerance by crop plants [1, 7] | tolerance by crop plants [4, 8]
CCS(=O)(=O)N(C(=O)CCCCCl)c1cc(-n2ncc(=O)n(C)c2=O)c(F)cc1C#N [Example 22] | essentially being tolerated well | very strong activity | very strong activity | essentially being tolerated well | logP = 2.65^a) | – | – | –
CCS(=O)(=O)N(C(=O)c1nn(C)c(OC(F)F)c1C)c1cc(-n2ncc(=O)n(C)c2=O)c(F)cc1C#N [Example 23] | essentially being tolerated well | very strong activity | very strong activity | essentially being tolerated well | m.p.: 187 °C logP = 2.82^a) | – | – | –
C=CC(=O)N(c1cc(-n2ncc(=O)n(CCF)c2=O)c(F)cc1C#N)S(C)(=O)=O [Example 62] | – | – | – | – | – | m.p.: 142 °C logP = 1.93^a) | – | –
C/C=C/C(=O)N(c1cc(-n2ncc(=O)n(CCF)c2=O)c(F)cc1C#N)S(C)(=O)=O [Example 63] | – | – | – | – | – | m.p.: 85 °C logP = 2.12^a) | – | –
C=CC(=O)N(c1cc(-n2ncc(=O)n(CCF)c2=O)c(F)cc1C#N)S(=O)(=O)CCC [Example 64] | – | – | – | – | – | m.p.: 142 °C logP = 2.46^a) | – | –
C=CC(=O)N(c1cc(-n2ncc(=O)n(CCF)c2=O)c(F)cc1C#N)S(=O)(=O)CC [Example 65] | – | – | – | – | – | m.p.: 83 °C logP = 2.14^a) | – | –
CCS(=O)(=O)N(C(=O)c1cn(C)nc1C(F)(F)F)c1cc(-n2ncc(=O)n(C)c2=O)c(F)cc1C#N [Example 67] | – | – | – | – | m.p.: 199 °C logP = 2.54^a) | – | – | –
CCS(=O)(=O)N(C(=O)c1snnc1C)c1cc(-n2ncc(=O)n(C)c2=O)c(F)cc1C#N [Example 68] | – | – | – | – | m.p.: 189 °C logP = 1.73^a) | – | – | –
CCS(=O)(=O)N(C(=O)N1CCCC1)c1cc(-n2ncc(=O)n(C)c2=O)c(F)cc1C#N [Example 69] | – | – | – | – | m.p.: 192 °C logP = 2.05^a) | – | – | –
CCS(=O)(=O)N(C(=O)N(C(C)C)C(C)C)c1cc(-n2ncc(=O)n(C)c2=O)c(F)cc1C#N [Example 71] | – | – | – | – | m.p.: 188 °C logP = 2.92^a) | – | – | –
CCS(=O)(=O)N(C(=O)Oc1ccc(F)cc1)c1cc(-n2ncc(=O)n(C)c2=O)c(F)cc1C#N [Example 74] | – | – | – | – | m.p.: 202 °C logP = 2.85^a) | – | – | –
CCS(=O)(=O)N(C(=O)CCCc1ccc(OC)cc1)c1cc(-n2ncc(=O)n(C)c2=O)c(F)cc1C#N [Example 76] | – | – | – | – | logP = 3.03^a) | – | – | –
CCS(=O)(=O)N(C(=O)/C=C/c1ccc2c(c1)OCO2)c1cc(-n2ncc(=O)n(C)c2=O)c(F)cc1C#N [Example 77] | – | – | – | – | – | m.p.: 141 °C logP = 2.72^a) | – | –
CCS(=O)(=O)N(C(=O)CC(c1ccccc1)c1ccccc1)c1cc(-n2ncc(=O)n(C)c2=O)c(F)cc1C#N [Example 78] | – | – | – | – | m.p.: 183 °C logP = 3.48^a) | – | – | –
CCS(=O)(=O)N(C(=O)Cc1ccccc1OC)c1cc(-n2ncc(=O)n(C)c2=O)c(F)cc1C#N [Example 80] | – | – | – | – | m.p.: 140 °C logP = 2.70^a) | – | – | –
CCS(=O)(=O)N(C(=O)Cc1cc(OC)ccc1OC)c1cc(-n2ncc(=O)n(C)c2=O)c(F)cc1C#N [Example 81] | – | – | – | – | m.p.: 192 °C logP = 2.66^a) | – | – | –
CCS(=O)(=O)N(C(=O)Cc1cccc(OC)c1)c1cc(-n2ncc(=O)n(C)c2=O)c(F)cc1C#N [Example 82] | – | – | – | – | m.p.: 158 °C logP = 2.63^a) | – | – | –
